From publication PMC4490768 (Cellular signalling, 2011)

Target: T1, ALK2ca T283S (constitutively active ALK2) (Homo sapiens, UniProt Q04771, Q207D/T283S)
T1 sequence (Q04771 21-509 Q207D/T283S): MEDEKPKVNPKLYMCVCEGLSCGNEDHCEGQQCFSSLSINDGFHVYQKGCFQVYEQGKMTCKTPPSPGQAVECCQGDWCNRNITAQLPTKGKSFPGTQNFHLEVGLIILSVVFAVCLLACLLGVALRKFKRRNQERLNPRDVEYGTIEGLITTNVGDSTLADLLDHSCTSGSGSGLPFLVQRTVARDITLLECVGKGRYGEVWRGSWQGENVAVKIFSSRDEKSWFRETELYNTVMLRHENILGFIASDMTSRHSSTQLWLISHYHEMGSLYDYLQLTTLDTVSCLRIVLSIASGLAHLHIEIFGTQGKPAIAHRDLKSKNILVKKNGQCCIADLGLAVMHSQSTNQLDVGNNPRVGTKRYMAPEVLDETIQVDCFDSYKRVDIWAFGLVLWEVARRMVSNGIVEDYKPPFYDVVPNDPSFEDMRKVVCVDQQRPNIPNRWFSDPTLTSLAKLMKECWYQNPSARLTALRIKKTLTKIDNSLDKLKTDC
Test: BRE2-luc luciferase reporter in NIH-3T3 cells expressing ALK2ca T283S
Format: cell-based

## NC(=O)c1ccc(-c2nc(-c3ccc4c(c3)OCO4)c(-c3ccccn3)[nH]2)cc1 [SB431542]
  EC50: 2.5 µM
